Assay results reported in ChEMBL document CHEMBL5576067, “Synthesis and biological evaluation of novel 1,2,3,4-tetrahydro-β-carboline derivatives as potential antibacterial agents” (Bioorg Med Chem Lett, 2024).
Converted amounts (≈) assume the structure as drawn.

Assays:
Format in all cases: functional
Staphylococcus aureus [1] = experiment: Antibacterial activity against methicillin resistant Staphylococcus aureus ATCC33591 assessed as inhibition of bacterial growth incubated for 24 hrs by broth microdilution method
Staphylococcus aureus [2] = experiment: Antibacterial activity against Staphylococcus aureus ATCC25923 assessed as inhibition of bacterial growth incubated for 24 hrs by broth microdilution method
Enterococcus faecium = experiment: Antibacterial activity against vancomycin-resistant Enterococcus faecium ATCC 700221 assessed as inhibition of bacterial growth incubated for 24 hrs by broth microdilution method
[3] = Antibacterial activity against Pseudomonas syringae pv. actinidiae assessed as inhibition of bacterial growth incubated for 24 hrs by broth microdilution method
Escherichia coli = experiment: Antibacterial activity against Escherichia coli ATCC25922 assessed as inhibition of bacterial growth incubated for 24 hrs by broth microdilution method
Ralstonia solanacearum = experiment: Antibacterial activity against Ralstonia solanacearum assessed as inhibition of bacterial growth incubated for 24 hrs by broth microdilution method

Row | SMILES | MIC (Staphylococcus aureus [1]) | MIC (Staphylococcus aureus [2]) | MIC (Enterococcus faecium) | MIC [3] | MIC (Escherichia coli) | MIC (Ralstonia solanacearum)
1 | CN1CCc2c([nH]c3ccccc23)C1c1ccc(NC(=O)c2cccc(Cl)c2)cc1 (configuration not stated) | 8 µg/mL (≈ 19.2 µM) | 16 µg/mL (≈ 38.5 µM) | > 128 µg/mL | 64 µg/mL (≈ 154 µM) | 16 µg/mL (≈ 38.5 µM) | 16 µg/mL (≈ 38.5 µM)
2 | COC(=O)c1ccc(C(=O)Nc2ccc(C3NCCc4c3[nH]c3ccccc43)cc2)cc1 (configuration not stated) | 32 µg/mL (≈ 75.2 µM) | 16 µg/mL (≈ 37.6 µM) | > 128 µg/mL | 16 µg/mL (≈ 37.6 µM) | 16 µg/mL (≈ 37.6 µM) | 16 µg/mL (≈ 37.6 µM)
3 | CN1CCc2c([nH]c3ccccc23)C1c1ccc(NC(=O)c2ccc(Cl)cc2)cc1 (configuration not stated) | 16 µg/mL (≈ 38.5 µM) | 8 µg/mL (≈ 19.2 µM) | > 128 µg/mL | 64 µg/mL (≈ 154 µM) | 32 µg/mL (≈ 76.9 µM) | 32 µg/mL (≈ 76.9 µM)
4 | CN1CCc2c([nH]c3ccccc23)C1c1ccc(NC(=O)c2ccc(Br)cc2)cc1 (configuration not stated) | 32 µg/mL (≈ 69.5 µM) | 32 µg/mL (≈ 69.5 µM) | > 128 µg/mL | 64 µg/mL (≈ 139 µM) | 32 µg/mL (≈ 69.5 µM) | 32 µg/mL (≈ 69.5 µM)
5 | Cc1ccccc1C(=O)Nc1ccc(C2c3[nH]c4ccccc4c3CCN2C)cc1 (configuration not stated) | 32 µg/mL (≈ 80.9 µM) | 64 µg/mL (≈ 162 µM) | > 128 µg/mL | 64 µg/mL (≈ 162 µM) | 64 µg/mL (≈ 162 µM) | 128 µg/mL (≈ 324 µM)
6 | CN1CCc2c([nH]c3ccccc23)C1c1ccc(NC(=O)c2ccc([N+](=O)[O-])cc2)cc1 (configuration not stated) | 16 µg/mL (≈ 37.5 µM) | 32 µg/mL (≈ 75 µM) | > 128 µg/mL | 32 µg/mL (≈ 75 µM) | 32 µg/mL (≈ 75 µM) | 32 µg/mL (≈ 75 µM)
7 | O=C(Nc1ccc(C2NCCc3c2[nH]c2ccccc32)cc1)c1cccc(C(F)(F)F)c1 (configuration not stated) | 4 µg/mL (≈ 9.19 µM) | 8 µg/mL (≈ 18.4 µM) | 128 µg/mL (≈ 294 µM) | 32 µg/mL (≈ 73.5 µM) | 8 µg/mL (≈ 18.4 µM) | 16 µg/mL (≈ 36.7 µM)
8 | Cc1ccccc1C(=O)Nc1ccc(C2NCCc3c2[nH]c2ccccc32)cc1 (configuration not stated) | 32 µg/mL (≈ 83.9 µM) | 32 µg/mL (≈ 83.9 µM) | > 128 µg/mL | 128 µg/mL (≈ 336 µM) | 64 µg/mL (≈ 168 µM) | 128 µg/mL (≈ 336 µM)
9 | CN1CCc2c([nH]c3ccccc23)C1c1ccc(NC(=O)c2ccccc2F)cc1 (configuration not stated) | 32 µg/mL (≈ 80.1 µM) | 64 µg/mL (≈ 160 µM) | > 128 µg/mL | 32 µg/mL (≈ 80.1 µM) | 64 µg/mL (≈ 160 µM) | 128 µg/mL (≈ 320 µM)
10 | CN1CCc2c([nH]c3ccccc23)C1c1ccc(NC(=O)c2ccc(F)c(C(F)(F)F)c2)cc1 (configuration not stated) | 8 µg/mL (≈ 17.1 µM) | 16 µg/mL (≈ 34.2 µM) | > 128 µg/mL | 64 µg/mL (≈ 137 µM) | 16 µg/mL (≈ 34.2 µM) | 16 µg/mL (≈ 34.2 µM)
11 | Cc1cccc(C(=O)Nc2ccc(C3c4[nH]c5ccccc5c4CCN3C)cc2)c1 (configuration not stated) | 64 µg/mL (≈ 162 µM) | 32 µg/mL (≈ 80.9 µM) | > 128 µg/mL | 32 µg/mL (≈ 80.9 µM) | 64 µg/mL (≈ 162 µM) | 32 µg/mL (≈ 80.9 µM)
12 | O=C(Nc1ccc(C2NCCc3c2[nH]c2ccccc32)cc1)c1ccc(F)c(C(F)(F)F)c1 (configuration not stated) | 8 µg/mL (≈ 17.6 µM) | 4 µg/mL (≈ 8.82 µM) | > 128 µg/mL | 32 µg/mL (≈ 70.6 µM) | 8 µg/mL (≈ 17.6 µM) | 16 µg/mL (≈ 35.3 µM)
13 | CN1CCc2c([nH]c3ccccc23)C1c1ccc(NC(=O)c2ccc(F)cc2)cc1 (configuration not stated) | 8 µg/mL (≈ 20 µM) | 4 µg/mL (≈ 10 µM) | > 128 µg/mL | 128 µg/mL (≈ 320 µM) | 16 µg/mL (≈ 40.1 µM) | 16 µg/mL (≈ 40.1 µM)
14 | CN1CCc2c([nH]c3ccccc23)C1c1ccc(NC(=O)c2cc(C(F)(F)F)cc(C(F)(F)F)c2)cc1 (configuration not stated) | 32 µg/mL (≈ 61.8 µM) | 16 µg/mL (≈ 30.9 µM) | > 128 µg/mL | > 128 µg/mL | 128 µg/mL (≈ 247 µM) | 128 µg/mL (≈ 247 µM)
15 | O=C(Nc1ccc(C2NCCc3c2[nH]c2ccccc32)cc1)c1ccccc1F (configuration not stated) | 32 µg/mL (≈ 83 µM) | 32 µg/mL (≈ 83 µM) | > 128 µg/mL | 64 µg/mL (≈ 166 µM) | 64 µg/mL (≈ 166 µM) | 128 µg/mL (≈ 332 µM)
16 | CN1CCc2c([nH]c3ccccc23)C1c1ccc(NC(=O)c2ccc(C(F)(F)F)cc2)cc1 (configuration not stated) | 8 µg/mL (≈ 17.8 µM) | 8 µg/mL (≈ 17.8 µM) | 128 µg/mL (≈ 285 µM) | 32 µg/mL (≈ 71.2 µM) | 16 µg/mL (≈ 35.6 µM) | 16 µg/mL (≈ 35.6 µM)
17 | CN1CCc2c([nH]c3ccccc23)C1c1ccc(NC(=O)c2cccc([N+](=O)[O-])c2)cc1 (configuration not stated) | 64 µg/mL (≈ 150 µM) | 64 µg/mL (≈ 150 µM) | > 128 µg/mL | > 128 µg/mL | 64 µg/mL (≈ 150 µM) | 64 µg/mL (≈ 150 µM)
